17 compounds from PubChem BioAssay (NCI) can be followed below.

Several values for one entry are separate records, joined by “and”; a condition that tells them apart may be missing. Equal entries are not always repeated.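 Assay format: 96-well plates, 48-hour exposure. Here, GI50 denotes the concentration required for 50% inhibition of growth. TGI: total growth inhibition.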 A value given as a limit tells only on which side of the number the result lay.

What all share (experiment): NCI tumour cell line growth inhibition, 48 h
Assay [1] deals with CCRF-CEM leukemia.
In assay [2] the test system is NCI-H226 lung.
The test system of assay [3] is SK-MEL-28 melanoma.
Assay [4] deals with SNB-19 CNS.
Assay [5] deals with SK-MEL-2 melanoma.
In assay [6] the test system is UACC-257 melanoma.
For assay [7], the system named is U251 CNS.
The test system of assay [8] is MALME-3M melanoma.
Assay [9] deals with SK-OV-3 ovarian.
The test system of assay [10] is DLD-1 colon.
Assay [11] has as its system LOX IMVI melanoma.
In assay [12] the test system is DMS 114 small cell lung.
Assay [13] relates to OVCAR-4 ovarian.
Assay [14] concerns K-562 leukemia.
Assay [15] relates to HS 578T breast.
Assay [16] deals with BT-549 breast.

With `O=C1C[C@@H]2[C@@H](C=CC23CCCC3)N1O`, the TGI in [1], in assay [2], in assay [3], in assay [4], in assay [5] and in [6] was more than 100 µM throughout. Moreover, the TGI in [7], in assay [8], in assay [9], in assay [10], in assay [11] and in assay [12] was more than 100 µM throughout. Besides, the TGI in [13] and in assay [14] was more than 100 µM in each case.
`COc1cc2c(c(OC)c1OC)[C@@H]1CCCCC[C@@H]1CCC2=O`: the TGI in assay [1] was more than 77.8 µM; in assay [2], more than 100 µM; in assay [3] it was more than 100 µM; in assay [4], more than 100 µM; in assay [5] it was more than 100 µM; in [6], more than 100 µM. Moreover, the TGI in [7] is more than 100 µM; in assay [8] it was more than 100 µM; in assay [9] it was more than 100 µM; in assay [10], more than 61 µM; in [11], 38.9 µM; in assay [12], more than 57.1 µM. In addition, the results for the TGI in assay [13] and in assay [14] were more than 100 µM and more than 72.5 µM, respectively.
As for `COC(=O)C(C(=O)C(=O)Nc1nc2ccc(OC)cc2s1)c1cnc2ccccc2n1` (stereo not given), the TGI in [2], in assay [3], in [4], in assay [6], in [7] and in assay [8] was more than 100 µM throughout. Moreover, the TGI in [9], in assay [10], in assay [11], in [13] and in [14] was more than 100 µM each time.
In the case of `COc1cc(CNc2ccc(C)cc2)cc(OC)c1OC`, the TGI is more than 83.6 µM in assay [1]; more than 100 µM in assay [3]; more than 100 µM in assay [4]; more than 100 µM in assay [5]; more than 100 µM in assay [6]; 1.2 µM in [7]. The TGI in assay [8] is more than 100 µM; in assay [9], 0.825 µM and 1.3 µM; in assay [10] it was more than 100 µM; in [11], more than 100 µM; in [12] it was 0.981 µM and 3.08 µM; in [13], more than 100 µM. Further, the TGI in [14] is > 42.3 µM and 25 µM. Further, the GI50 in assay [2] is 0.284 µM and 0.72 µM; in assay [3] it was 0.525 µM; in [4] it was 0.959 µM; in [8], 0.276 µM and 0.658 µM.
In the case of `Cc1nsc2cc(Cl)n(C)c(=O)c12`, the TGI in assay [1], in assay [2], in [3], in assay [4], in [5] and in assay [6] was more than 100 µM throughout. Moreover, the TGI in [7], in assay [8], in assay [9], in assay [10], in [11] and in assay [12] was more than 100 µM in each case. The TGI in assay [13] and in [14] was more than 100 µM each time.
Regarding `O=C(CC(=O)n1nc(-c2ccccc2)c(N=Nc2ccc([N+](=O)[O-])cc2)c1-c1ccccc1)Nc1ccc(Cl)cc1`, the TGI is 97 µM in assay [1]; 70 µM in assay [2]; 80.8 µM in assay [3]; 81.6 µM in [4]; more than 100 µM in assay [5]; more than 100 µM in assay [6]. For the same compound, the TGI is 63.1 µM in [7]; more than 100 µM in assay [8]; 42.3 µM in assay [9]; more than 100 µM in assay [10]; more than 100 µM in assay [11]; 48.8 µM in assay [12]. In addition, the values for the TGI in [13] and in [14] were more than 100 µM and 17.8 µM, respectively.
Take `COc1cc(Br)c(/C=N/N=C(\N)NO)cc1OC`: the TGI is more than 100 µM in assay [1]; 31.5 µM in [2]; more than 100 µM in assay [3]; more than 100 µM in assay [4]; more than 100 µM in [5]; 51 µM in [6]. Moreover, the TGI is more than 100 µM in assay [7]; 60.2 µM in [8]; 68.8 µM in [9]; more than 100 µM in assay [10]; 61.2 µM in [11]; 33.6 µM in assay [12]. Further, the TGI in assay [13] was more than 100 µM; in [14], 47.3 µM.
In the case of `COc1cc(Br)c(C=Nc2cccc3ccc(OS(=O)(=O)c4ccc([N+](=O)[O-])cc4)cc23)cc1OC`, the TGI in assay [1], in assay [2], in assay [3], in [4], in assay [5] and in [6] was more than 100 µM in each case. For the same compound, the TGI in assay [7], in [8], in assay [9], in assay [10], in assay [11] and in assay [12] was more than 100 µM throughout. This compound registered a TGI in assay [13] of more than 100 µM.
As to `COc1cc(C(C)c2cc3c(cc2OCCCCCOc2cc4c(cc2C(C)c2cc(OC)c(OC)c(OC)c2)OCO4)OCO3)cc(OC)c1OC` (stereo not given), the TGI in assay [1], in assay [2], in assay [3], in [4], in assay [5] and in assay [6] was more than 100 µM each time. Besides, the TGI in assay [7], in assay [8], in assay [10], in [11], in assay [13] and in [14] was more than 100 µM throughout.
Regarding `CC(C)(C(=O)N(C(=O)N1CCN(c2ccccc2)CC1)S(=O)(=O)c1ccccc1)c1ccc(Cl)cc1`, the TGI in assay [1] was more than 100 µM; in [2] it was more than 100 µM; in assay [3] it was more than 100 µM; in [4] it was more than 100 µM; in [5], 53.9 µM; in assay [6] it was more than 100 µM. The TGI in [7], in assay [15], in assay [8], in assay [16], in assay [9] and in [11] was more than 100 µM in each case. Further, the TGI in assay [13] and in assay [14] was more than 100 µM in each case.
Consider `Cc1ccc2c(n1)C(=O)c1cc(C)c(C)cc1C2=O`, for which the TGI in assay [1], in assay [2], in assay [3], in assay [4], in assay [5] and in assay [6] was more than 100 µM throughout. Moreover, the TGI in assay [7], in [15], in assay [8], in assay [16], in [9] and in [11] was more than 100 µM in each case. Further, the TGI in assay [13] and in assay [14] was more than 100 µM each time.
Regarding `CC1=CC(=O)c2ccc3c4ccccc4n(C)c3c2C1=O`, the TGI in [1] was more than 81.5 µM; in assay [2] it was more than 100 µM; in assay [3], more than 100 µM; in assay [4], more than 100 µM; in [5], 53.1 µM; in [6], more than 100 µM. In addition, the TGI is more than 100 µM in [7]; more than 100 µM in [15]; 30 µM in [8]; more than 100 µM in assay [16]; more than 100 µM in assay [9]; more than 100 µM in assay [10]. Also, the TGI is 97.1 µM in [12], more than 100 µM in assay [13] and more than 100 µM in [14].
As for `c1ccc([P+](Cc2ccc(C[P+](c3ccccc3)(c3ccccc3)c3ccccc3)s2)(c2ccccc2)c2ccccc2)cc1`, the TGI in assay [1], in assay [2], in assay [3], in assay [4], in [5] and in [6] was more than 100 µM throughout. Moreover, the TGI in assay [7], in assay [15], in assay [8], in [16], in [9] and in [11] was more than 100 µM each time. Further, the TGI in assay [13] and in [14] was more than 100 µM each time.
As to `CCCCCCCCCCCCCCCCNc1nc(=O)n(C2CC(O)C(COP(=O)(O)OC3CC(n4cc(F)c(=O)[nH]c4=O)OC3CO)O2)cc1F` (stereo not given), the TGI was 17.6 µM in [1]; more than 100 µM in assay [2]; more than 68.7 µM in assay [3]; 3.39 µM in [4]; more than 63.9 µM in assay [5]; more than 59 µM in assay [6]. Further, the TGI was 32 µM in assay [7]; more than 100 µM in assay [15]; more than 72.1 µM in assay [8]; 35.3 µM in assay [16]; more than 100 µM in assay [9]; 17.1 µM in [11]. Also, the values for the TGI in assay [13] and in assay [14] were more than 100 µM and 24.1 µM, respectively.
Take `CC(=O)NC1=C(NCCO)C(=O)c2ccccc2C1=O`: the TGI in [1], in assay [2], in [3], in assay [4], in assay [5] and in assay [6] was more than 50 µM in each case. Further, the TGI in [7] is more than 50 µM; in [8], 46 µM; in assay [9], more than 50 µM; in assay [10] it was more than 50 µM; in assay [11] it was more than 50 µM; in assay [13] it was more than 50 µM. For the same compound, the TGI in assay [14] is more than 50 µM.
For `COc1cc2c(cc1OCCCN1CCOCC1)N=C[C@@H]1CCCN1C2=O`, the TGI in assay [1] was 25.3 µM; in [2], 65.9 µM; in assay [3] it was 29.1 µM; in assay [4], more than 100 µM; in assay [5] it was more than 100 µM; in assay [6], 78.9 µM. The TGI in assay [7] is more than 100 µM; in assay [15], more than 100 µM; in assay [8], 33.6 µM; in assay [16], more than 100 µM; in assay [9] it was 87.5 µM; in [11], more than 100 µM. For the same compound, the TGI in assay [13] was 40.1 µM; in [14], more than 100 µM.
On to `NC(N)=NS(=O)(=O)c1ccc(NCc2cccc3c(=O)c4ccc(Cl)cc4oc23)cc1`, for which the TGI in [1] is more than 7.9 µM; in [2], more than 25 µM; in assay [3], more than 23.6 µM; in assay [4], 22.2 µM; in [5] it was more than 16.7 µM; in assay [6], more than 25 µM. Further, the TGI in assay [7] is more than 14.6 µM; in assay [15], 13.9 µM; in assay [8], more than 19.2 µM; in assay [16] it was more than 14.4 µM; in assay [9] it was more than 17.3 µM; in assay [11], more than 11.3 µM. The TGI was more than 18 µM in assay [13] and more than 25 µM in assay [14].
